{"source": "patent US8148423B2", "about": "“Fluorophore compounds” (Versitech Limited, priority 2008, dated 2012)", "key": {"[1]": {"experiment": "Absorption spectra of rhodol fluorophores in phosphate buffer", "assay_type": "physicochemical", "conditions": "for Abs Max: 50 mM aqueous phosphate buffer at pH about 8.0, 25° C.; for εmax: 50 mM aqueous phosphate buffer at pH about 8.0", "protocol": "(§1) The photophysical properties of the rhodol fluorophores in Table 1 were measured according to the procedures disclosed herein and are summarized in Table 1. Stock solutions were prepared by accurately weighting and dissolving about 5-10 mg of the rhodol fluorophores in Table 1 in acetonitrile (CH3CN). Absorbance solutions were prepared by further diluting the stock solution with 50 mM of potassium phosphate buffer at pH 8.0. Absorption spectra were recorded on a CARY 50 Bio UV-Visible spectrophotometer (obtainable from Varian Incorporation, Palo Alto, Calif.) under the control of a PC running the manufacturer supplied software package. Spectra were routinely acquired at 25° C., in 1 cm path length quartz cuvettes with a volume of 3.5 mL. Fluorescence spectra were recorded on a Hitachi F-2500 spectrofluorimeter (obtainable from Hitachi, Japan) under the control of a PC running the manufacturer supplied software package. Slit width was 2.5 nm for both the excitation spectrum and the fluorescence spectrum, and the photomultiplier voltage was […]. All spectra were corrected for emission intensity using the manufacturer-supplied photomultiplier curves. The quantum yields of the fluorophores may be estimated by comparison of the integrated area of the corrected emission spectrum of the sample with that of a reference solution, such as a solution of rhodamine 6 G in water (quantum efficiency 0.76). The concentration of the reference was adjusted to match the absorbance of the test sample."}, "[2]": {"experiment": "Fluorescence spectra and quantum yield of rhodol fluorophores, rhodamine 6G as reference", "assay_type": "physicochemical", "conditions": "50 mM aqueous phosphate buffer at pH about 8.0, N.D. = no fluorescence detected; for QY (quantum yield): relative to rhodamine 6G (QY = 0.76 in water)", "protocol": "as §1"}}, "data": [{"smiles": "COc1ccc2c(c1)Oc1cc(N)ccc1C21OC(=O)c2ccccc21", "note": "(centres unmarked) [A=Me, R1=H, R2=H]", "values": [{"measurement": "Abs Max", "setting": "[1]", "result": 477, "unit": "nm"}, {"measurement": "Em Max", "setting": "[2]", "result": 516, "unit": "nm"}, {"measurement": "QY (quantum yield)", "setting": "[2]", "result": 0.85}]}, {"smiles": "C=CC(=O)Nc1ccc2c(c1)Oc1cc(O)ccc1C21OC(=O)c2ccccc21", "note": "(centres unmarked) [A=H, R1=H, R2=COCHCH2]", "values": [{"measurement": "Abs Max", "setting": "[1]", "result": "462/490"}, {"measurement": "Em Max", "setting": "[2]", "result": 524, "unit": "nm"}, {"measurement": "QY (quantum yield)", "setting": "[2]", "result": 0.19}]}, {"smiles": "Nc1ccc2c(c1)Oc1cc(O)ccc1C21OC(=O)c2ccccc21", "note": "(centres unmarked) [A=H, R1=H, R2=H]", "values": [{"measurement": "εmax", "setting": "[1]", "result": "~70,000 cm^−1M^−1"}, {"measurement": "Abs Max", "setting": "[1]", "result": 493, "unit": "nm"}, {"measurement": "Em Max", "setting": "[2]", "result": 516, "unit": "nm"}, {"measurement": "QY (quantum yield)", "setting": "[2]", "result": 0.98}]}, {"smiles": "O=C1OC2(c3ccc(O)cc3Oc3cc(NCc4ccccc4)ccc32)c2ccccc21", "note": "(centres unmarked) [A=H, R1=H, R2=Bn]", "values": [{"measurement": "εmax", "setting": "[1]", "result": "71,000 cm^−1M^−1"}, {"measurement": "Abs Max", "setting": "[1]", "result": 503, "unit": "nm"}, {"measurement": "Em Max", "setting": "[2]", "result": 529, "unit": "nm"}, {"measurement": "QY (quantum yield)", "setting": "[2]", "result": 0.95}]}, {"smiles": "CCCNc1ccc2c(c1)Oc1cc(O)ccc1C21OC(=O)c2ccccc21", "note": "(centres unmarked) [A=H, R1=H, R2=n-Pr]", "values": [{"measurement": "εmax", "setting": "[1]", "result": "61,000 cm^−1M^−1"}, {"measurement": "Abs Max", "setting": "[1]", "result": 507, "unit": "nm"}, {"measurement": "Em Max", "setting": "[2]", "result": 531, "unit": "nm"}, {"measurement": "QY (quantum yield)", "setting": "[2]", "result": 0.94}]}, {"smiles": "O=C1OC2(c3ccc(O)cc3Oc3cc(N4CCCCC4)ccc32)c2ccccc21", "note": "(centres unmarked) [A=H, R1R2=CH2CH2CH2CH2CH2]", "values": [{"measurement": "εmax", "setting": "[1]", "result": "62,500 cm^−1M^−1"}, {"measurement": "Abs Max", "setting": "[1]", "result": 523, "unit": "nm"}, {"measurement": "Em Max", "setting": "[2]", "result": 555, "unit": "nm"}, {"measurement": "QY (quantum yield)", "setting": "[2]", "result": 0.03}]}, {"smiles": "O=C(Nc1ccc2c(c1)Oc1cc(O)ccc1C21OC(=O)c2ccccc21)c1ccccc1", "note": "(centres unmarked) [A=H, R1=H, R2=COPh]", "values": [{"measurement": "Abs Max", "setting": "[1]", "result": "462/490"}, {"measurement": "Em Max", "setting": "[2]", "result": 525, "unit": "nm"}, {"measurement": "QY (quantum yield)", "setting": "[2]", "result": 0.16}]}, {"smiles": "O=C1OC2(c3ccc(O)cc3Oc3cc(Nc4ccccc4)ccc32)c2ccccc21", "note": "(centres unmarked) [A=H, R1=H, R2=Ph]", "values": [{"measurement": "εmax", "setting": "[1]", "result": "55,000 cm^−1M^−1"}, {"measurement": "Abs Max", "setting": "[1]", "result": 513, "unit": "nm"}]}, {"smiles": "CCCCN(CCCC)c1ccc2c(c1)Oc1cc(O)ccc1C21OC(=O)c2ccccc21", "note": "(centres unmarked) [A=H, R1=n-Bu, R2=n-Bu]", "values": [{"measurement": "εmax", "setting": "[1]", "result": "63,000 cm^−1M^−1"}, {"measurement": "Abs Max", "setting": "[1]", "result": 525, "unit": "nm"}, {"measurement": "Em Max", "setting": "[2]", "result": 553, "unit": "nm"}, {"measurement": "QY (quantum yield)", "setting": "[2]", "result": 0.12}]}, {"smiles": "COCOc1ccc2c(c1)Oc1cc(NC(=O)c3ccccc3)ccc1C21OC(=O)c2ccccc21", "note": "(centres unmarked) [A=MOM, R1=H, R2=COPh]", "values": [{"measurement": "Abs Max", "setting": "[1]", "result": 293, "unit": "nm"}]}, {"smiles": "CCCNc1ccc2c(c1)Oc1cc(OCOC)ccc1C21OC(=O)c2ccccc21", "note": "(centres unmarked) [A=MOM, R1=H, R2=n-Pr]", "values": [{"measurement": "Abs Max", "setting": "[1]", "result": 494, "unit": "nm"}, {"measurement": "Em Max", "setting": "[2]", "result": 532, "unit": "nm"}, {"measurement": "QY (quantum yield)", "setting": "[2]", "result": 0.35}]}, {"smiles": "CN(C)c1ccc2c(c1)Oc1cc(O)ccc1C21OC(=O)c2ccccc21", "note": "(centres unmarked) [A=H, R1=Me, R2=Me]", "values": [{"measurement": "εmax", "setting": "[1]", "result": "64,000 cm^−1M^−1"}, {"measurement": "Abs Max", "setting": "[1]", "result": 518, "unit": "nm"}, {"measurement": "Em Max", "setting": "[2]", "result": 544, "unit": "nm"}, {"measurement": "QY (quantum yield)", "setting": "[2]", "result": 0.20}]}, {"smiles": "CCCCNc1ccc2c(c1)Oc1cc(O)ccc1C21OC(=O)c2ccccc21", "note": "(centres unmarked) [A=H, R1=H, R2=n-Bu]", "values": [{"measurement": "εmax", "setting": "[1]", "result": "60,000 cm^−1M^−1"}, {"measurement": "Abs Max", "setting": "[1]", "result": 508, "unit": "nm"}, {"measurement": "Em Max", "setting": "[2]", "result": 533, "unit": "nm"}, {"measurement": "QY (quantum yield)", "setting": "[2]", "result": 0.90}]}, {"smiles": "CCN(CC)c1ccc2c(c1)Oc1cc(O)ccc1C21OC(=O)c2ccccc21", "note": "(centres unmarked) [A=H, R1=Et, R2=Et]", "values": [{"measurement": "εmax", "setting": "[1]", "result": "47,000 cm^−1M^−1"}, {"measurement": "Abs Max", "setting": "[1]", "result": 522, "unit": "nm"}, {"measurement": "Em Max", "setting": "[2]", "result": 549, "unit": "nm"}, {"measurement": "QY (quantum yield)", "setting": "[2]", "result": 0.08}]}]}
